Data reported in patent US20160108038A1, “BICYCLIC ARYL SULFIDE AND ARYL SULFOXIDE DERIVATIVES AS PEST CONTROL AGENT” (BAYER CROPSCIENCE AKTIENGESELLSCHAFT, priority 2013, published 2016).
Like-named read-outs stand apart in the source and are kept apart here.

How the values were obtained:
[1] = log P determination by HPLC on reversed-phase columns (C 18), analogous to OECD Guideline 117; assay type: physicochemical; conditions: for chromatographic logP: reversed-phase C18 HPLC column
Method: The log P values were determined analogously to OECD Guideline 117 (EC Directive 92/69/EEC) by HPLC (high-performance liquid chromatography) using reversed-phase columns (C 18), by the following methods: [a] The LC-MS determination in the acidic range was effected at pH 2.7 with 0.1% aqueous formic acid and acetonitrile (contains 0.1% formic acid) as eluents; linear gradient from 10% acetonitrile to 95% acetonitrile. log P^[a] is also referred to as log P(HCOOH). [b] LC-MS determination in the neutral range was effected at pH 7.8 with 0.001 molar aqueous ammonium hydrogencarbonate solution and acetonitrile as eluents; linear gradient from 10% acetonitrile to 95% acetonitrile. log P^[…] is also referred to as log P(neutral).

Tetranychus urticae = Tetranychus urticae spray test, OP-resistant; assay type: in vivo; conditions: 500 g/ha, bean leaf discs, after 6 days
Method: Tetranychus urticae—Spray Test, OP-Resistant
(§1) To produce a suitable preparation of active compound, 1 part by weight of active compound is dissolved using the stated parts by weight of solvent and made up with water containing an emulsifier concentration of 1000 ppm until the desired concentration is attained. To produce further test concentrations, the preparation is diluted with emulsifier-containing water.
Discs of bean leaves (Phaseolus vulgaris) infested with all stages of the greenhouse red spider mite (Tetranychus urticae) are sprayed with an active compound preparation of the desired concentration.
After 6 days, the efficacy in % is determined. 100% means that all the spider mites have been killed; 0% means that none of the spider mites have been killed.

Boophilus microplus = Boophilus microplus injection test; assay type: in vivo; conditions: 20 μg/animal, injection into engorged adult female cattle ticks, after 7 days; 100% = no fertile eggs
Method: Boophilus microplus—Injection Test Solvent: dimethyl sulfoxide To produce a suitable preparation of active compound, 10 mg of active compound are mixed with 0.5 ml of solvent and the concentrate is diluted with solvent to the desired concentration. 1 μl of the active compound solution is injected into the abdomen of 5 engorged adult female cattle ticks (Boophilus microplus). The animals are transferred into dishes and kept in a climate-controlled room. Efficacy is assessed after 7 days by laying of fertile eggs. Eggs which are not visibly fertile are stored in a climate-controlled cabinet until the larvae hatch after about 42 days. An efficacy of 100% means that none of the ticks has laid any fertile eggs; 0% means that all the eggs are fertile.

Phaedon cochleariae = Phaedon cochleariae spray test; assay type: in vivo; conditions: 500 g/ha, Chinese cabbage leaf discs, after 7 days
Method: Phaedon cochleariae—Spray Test
as §1
After 7 days, the efficacy in % is determined. 100% means that all the beetle larvae have been killed; 0% means that no beetle larvae have been killed.

Meloidogyne incognita = Meloidogyne incognita test; assay type: in vivo; conditions: 20 ppm, lettuce, after 14 days; 100% = no galls
Method: Meloidogyne incognita Test Solvent: 125.0 parts by weight of acetone To produce a suitable preparation of active compound, 1 part by weight of active compound is mixed with the stated amount of solvent and the concentrate is diluted with water to the desired concentration. Vessels are filled with sand, active compound solution, an egg/larvae suspension of the southern root-knot nematode (Meloidogyne incognita) and lettuce seeds. The lettuce seeds germinate and the plants develop. The galls develop on the roots. After 14 days, the nematicidal efficacy in % is determined by the formation of galls. 100% means that no galls were found; 0% means that the number of galls on the treated plants corresponds to the untreated control.

[2] = acidic range, pH 2.7, 0.1% aqueous formic acid and acetonitrile, read-out: logP(HCOOH)
[3] = neutral range, pH 7.8, 0.001 molar aqueous ammonium hydrogencarbonate and acetonitrile, read-out: logP(neutral)
[4] = acidic range, pH 2.7, 0.1% aqueous formic acid and acetonitrile
[5] = neutral range, pH 7.8, 0.001 molar aqueous ammonium hydrogencarbonate and acetonitrile

Compound	chromatographic logP [1, 2]	chromatographic logP [1, 3]	efficacy (spider mites killed) (Tetranychus urticae) [%]	logP(HCOOH) [1, 4]	logP(neutral) [1, 5]	efficacy (laying of fertile eggs) (Boophilus microplus) [%]	efficacy (beetle larvae killed) (Phaedon cochleariae) [%]	nematicidal efficacy (formation of galls) (Meloidogyne incognita) [%]
Cc1cc(F)c(NC(=O)c2cccnc2N)cc1SCC(F)(F)F [2-Amino-N-{2-fluoro-4-methyl-5-[(2,2,2-trifluoroethyl)sulfanyl]phenyl}nicotinamide]	1.7	2.71						
Cc1cc(F)c(-n2cnc3ccncc3c2=O)cc1SCC(F)(F)F [Compound 1]			100	2.54	2.56			
O=c1c2cccnc2ncn1-c1cc(SCC(F)(F)F)c(Cl)cc1Cl [Compound 3]				2.73	2.68			
Cc1cc(C)c(-n2cnc3ncccc3c2=O)cc1SCC(F)(F)F [Compound 4]			100	2.53	2.54			
Cc1cc(C)c([S+]([O-])CC(F)(F)F)cc1-n1cnc2ncccc2c1=O (stereo not drawn) [Compound 6]			100	1.62	1.61	100		
O=c1c2cccnc2ncn1-c1cc([S+]([O-])CC(F)(F)F)c(Cl)cc1Cl (stereo not drawn) [Compound 7]			90	1.98	1.84			
Cc1cc(F)c(-n2cnc3cccnc3c2=O)cc1SCC(F)(F)F [Compound 9]			100	2.33				
Cc1cc(F)c(-n2cnc3cccnc3c2=O)cc1[S+]([O-])CC(F)(F)F (stereo not drawn) [Compound 11]			100	1.49	1.46		100	
Cc1cc(F)c(-n2cnc3cnccc3c2=O)cc1SCC(F)(F)F [Compound 12]				2.55	2.56			
Cc1cc(F)c(-n2cnc3cnccc3c2=O)cc1[S+]([O-])CC(F)(F)F (stereo not drawn) [Compound 13]			100	1.60	1.63			
Cc1cc(F)c(-n2cnc3ccncc3c2=O)cc1[S+]([O-])CC(F)(F)F (stereo not drawn) [Compound 14]			90	1.61	1.64	100		
Cc1cc(Cl)c(-n2cnc3ncccc3c2=O)cc1SCC(F)(F)F [Compound 15]				2.62	2.62			
Cc1cc(C)c(-n2c(C)nc3ncccc3c2=O)cc1SCC(F)(F)F [Compound 16]				2.63	2.60			
Cc1cc(C)c([S+]([O-])CC(F)(F)F)cc1-n1c(C)nc2ncccc2c1=O (stereo not drawn) [Compound 17]			90	1.67	1.67			90
Cc1cc(Cl)c(-n2cnc3ncccc3c2=O)cc1[S+]([O-])CC(F)(F)F (stereo not drawn) [Compound 18]			100	1.77	1.73			

Now from value to compound, other results behind:

chromatographic logP [1, 2]	chromatographic logP [1, 3]	Compound	efficacy (spider mites killed) (Tetranychus urticae) [%]	logP(HCOOH) [1, 4]	logP(neutral) [1, 5]	efficacy (laying of fertile eggs) (Boophilus microplus) [%]	efficacy (beetle larvae killed) (Phaedon cochleariae) [%]	nematicidal efficacy (formation of galls) (Meloidogyne incognita) [%]
0.42	0.43	Cc1nc2ncccc2c(=O)o1 [2-Methyl-4H-pyrido[2,3-d][1,3]oxazin-4-one]						
2.43	2.43	Cc1cc(F)c(-n2cnc3ncccc3c2=O)cc1SCC(F)(F)F [Compound 2, 3-{2-Fluoro-4-methyl-5-[(2,2,2-trifluoroethyl)sulfanyl]phenyl}-2-pyrido [2,3-d]pyrimidin-4(3H)-one]	90					
1.56	1.56	Cc1cc(F)c(-n2cnc3ncccc3c2=O)cc1[S+]([O-])CC(F)(F)F (stereo not drawn) [Compound 5, 3-{2-Fluoro-4-methyl-5-[(2,2,2-trifluoroethyl)sulfinyl]phenyl}pyrido[2,3-d]pyrimidin-4(3H)-one]	90					
2.55	2.52	Cc1cc(F)c(-n2c(C)nc3ncccc3c2=O)cc1SCC(F)(F)F [Compound 8, 3-{2-Fluoro-4-methyl-5-[(2,2,2-trifluoroethyl)sulfanyl]phenyl}-2-mehtylpyrido[2,3-d]pyrimidin-4(3H)-one]	100					
1.66	1.64	Cc1cc(F)c(-n2c(C)nc3ncccc3c2=O)cc1[S+]([O-])CC(F)(F)F (stereo not drawn) [Compound 10, 3-{2-Fluoro-4-methyl-5-[(2,2,2-trifluoroethyl)sulfinyl]phenyl}-2-mehtylpyrido[2,3-d]pyrimidin-4(3H)-one]	100					
